This passage reports Activity and EC50 results from ChEMBL document CHEMBL2176888, “Structure-activity relationships in human Toll-like receptor 8-active 2,3-diamino-furo[2,3-c]pyridines” (J Med Chem, 2012).

Data set [1] has as its target T1, Toll-like receptor 8 (Homo sapiens) (UniProt Q9NR97).
T1 sequence (whole entry): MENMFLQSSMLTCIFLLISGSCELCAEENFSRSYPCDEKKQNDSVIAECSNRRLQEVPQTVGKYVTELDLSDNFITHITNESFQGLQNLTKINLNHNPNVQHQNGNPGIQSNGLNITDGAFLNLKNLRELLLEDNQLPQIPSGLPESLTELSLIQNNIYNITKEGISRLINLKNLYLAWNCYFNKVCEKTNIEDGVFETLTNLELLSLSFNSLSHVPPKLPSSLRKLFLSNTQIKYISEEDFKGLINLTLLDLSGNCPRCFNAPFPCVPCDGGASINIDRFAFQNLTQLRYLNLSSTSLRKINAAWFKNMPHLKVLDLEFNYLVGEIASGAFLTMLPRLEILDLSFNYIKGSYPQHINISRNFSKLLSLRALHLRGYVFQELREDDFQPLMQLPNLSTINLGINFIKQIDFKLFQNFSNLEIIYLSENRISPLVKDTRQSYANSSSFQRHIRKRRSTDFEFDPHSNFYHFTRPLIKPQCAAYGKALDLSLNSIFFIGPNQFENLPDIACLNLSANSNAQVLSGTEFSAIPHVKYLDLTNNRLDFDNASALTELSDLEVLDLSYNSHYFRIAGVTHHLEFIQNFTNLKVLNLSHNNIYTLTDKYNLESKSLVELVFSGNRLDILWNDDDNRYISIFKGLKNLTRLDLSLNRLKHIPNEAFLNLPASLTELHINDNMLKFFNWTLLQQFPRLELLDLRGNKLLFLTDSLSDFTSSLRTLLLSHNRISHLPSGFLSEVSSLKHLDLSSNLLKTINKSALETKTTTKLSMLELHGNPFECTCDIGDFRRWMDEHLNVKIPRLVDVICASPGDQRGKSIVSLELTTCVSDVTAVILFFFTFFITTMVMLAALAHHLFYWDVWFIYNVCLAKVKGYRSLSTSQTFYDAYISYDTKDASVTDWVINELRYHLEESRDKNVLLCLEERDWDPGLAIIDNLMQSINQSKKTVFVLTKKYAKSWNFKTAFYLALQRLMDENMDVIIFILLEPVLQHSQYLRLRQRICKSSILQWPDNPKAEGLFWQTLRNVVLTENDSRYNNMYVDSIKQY
Description: (§1) Agonist activity at human TLR8 expressed in HEK293 cells assessed as induction of NF-kappaB activity by measuring extracellular secreted alkaline phosphatase by HEK-blue reporter gene assay. It is filed as functional, cell-based. Background: A reporter such as luciferase makes a cellular process visible.

Data set [2] deals with T2, Toll-like receptor 8 (Homo sapiens, UniProt Q9NR97).
T2 sequence (Q9NR97 whole entry): T1 sequence (whole entry)
Described as §1. The format is functional, cell-based. The note with it: read-out: EC50.

In data set [3] the test system is PBMC. The data set is described as follows: Induction of proinflammatory cytokine release in human PBMC after 12 hrs. It is filed as cell-based.
The subject of data set [4] is PBMC. Description: Up-regulation of CCL gene in human PBMC cells after 2 hrs. It is filed as cell-based.
For data set [5], the system named is PBMC. The data set is described as follows: Induction of transcriptional signature of inflammatory gene expression in human PBMC cells after 2 hrs. The format is cell-based.
The test system of data set [6] is PBMC. Description: Up-regulation of CXCL gene in human PBMC cells after 2 hrs. The format is cell-based.
The species named for data set [7] is Oryctolagus cuniculus. Description: Adjuvantic activity in New Zealand White rabbit immunized with bovine alpha-lactalbumin on day 1, 15, and 28 assessed as anti-alpha-lactalbumin IgG level in serum at 100 ug measured on day 38 by ELISA. It is filed as functional, organism-based.
Data set [8] addresses Toll-like receptor 3 (Homo sapiens) (UniProt O15455). The data set is described as follows: Agonist activity at human TLR3 expressed in HEK293 cells assessed as induction of NF-kappaB activity by measuring extracellular secreted alkaline phosphatase up to 250 uM by HEK-blue reporter gene assay. It is filed as functional, cell-based.
Data set [9] concerns the target T3, Toll-like receptor 7 (Homo sapiens) (UniProt Q9NYK1).
T3 sequence (whole entry): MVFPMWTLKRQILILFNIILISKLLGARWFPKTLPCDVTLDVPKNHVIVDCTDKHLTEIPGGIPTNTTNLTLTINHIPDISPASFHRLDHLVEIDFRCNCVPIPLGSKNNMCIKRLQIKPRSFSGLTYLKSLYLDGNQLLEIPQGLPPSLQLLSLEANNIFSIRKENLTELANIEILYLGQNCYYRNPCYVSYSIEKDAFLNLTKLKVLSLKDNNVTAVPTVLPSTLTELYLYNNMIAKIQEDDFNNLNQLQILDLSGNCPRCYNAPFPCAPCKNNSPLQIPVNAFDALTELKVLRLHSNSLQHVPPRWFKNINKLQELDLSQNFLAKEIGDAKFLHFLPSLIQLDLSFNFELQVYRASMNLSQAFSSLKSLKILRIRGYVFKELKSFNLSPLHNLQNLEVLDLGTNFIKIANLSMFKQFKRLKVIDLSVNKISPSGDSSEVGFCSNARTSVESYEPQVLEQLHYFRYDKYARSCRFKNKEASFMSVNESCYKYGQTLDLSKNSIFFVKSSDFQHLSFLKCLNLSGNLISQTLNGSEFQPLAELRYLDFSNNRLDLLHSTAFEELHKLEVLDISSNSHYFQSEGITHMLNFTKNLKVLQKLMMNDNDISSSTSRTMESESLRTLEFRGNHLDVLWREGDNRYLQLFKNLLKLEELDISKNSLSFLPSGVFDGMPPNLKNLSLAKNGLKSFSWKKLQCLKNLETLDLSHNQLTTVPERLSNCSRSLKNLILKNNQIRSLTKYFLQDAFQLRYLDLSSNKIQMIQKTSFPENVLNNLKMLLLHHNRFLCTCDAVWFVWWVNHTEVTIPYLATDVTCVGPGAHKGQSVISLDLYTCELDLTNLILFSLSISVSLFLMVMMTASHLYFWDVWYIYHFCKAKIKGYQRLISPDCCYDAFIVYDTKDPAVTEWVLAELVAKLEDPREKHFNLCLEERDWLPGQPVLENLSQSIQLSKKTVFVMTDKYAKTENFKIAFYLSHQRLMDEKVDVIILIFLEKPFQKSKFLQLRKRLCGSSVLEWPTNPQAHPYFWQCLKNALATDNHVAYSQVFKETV
Description: Agonist activity at human TLR7 expressed in HEK293 cells assessed as induction of NF-kappaB activity by measuring extracellular secreted alkaline phosphatase up to 250 uM by HEK-blue reporter gene assay. It is filed as functional, cell-based.

Data set [10] has as its target Toll-like receptor 5 (Homo sapiens) (UniProt O60602). Description: Agonist activity at human TLR5 expressed in HEK293 cells assessed as induction of NF-kappaB activity by measuring extracellular secreted alkaline phosphatase up to 250 uM by HEK-blue reporter gene assay. It is filed as functional, cell-based.
The target in data set [11] is T4, Toll-like receptor 9 (Homo sapiens) (UniProt Q9NR96).
T4 sequence (whole entry): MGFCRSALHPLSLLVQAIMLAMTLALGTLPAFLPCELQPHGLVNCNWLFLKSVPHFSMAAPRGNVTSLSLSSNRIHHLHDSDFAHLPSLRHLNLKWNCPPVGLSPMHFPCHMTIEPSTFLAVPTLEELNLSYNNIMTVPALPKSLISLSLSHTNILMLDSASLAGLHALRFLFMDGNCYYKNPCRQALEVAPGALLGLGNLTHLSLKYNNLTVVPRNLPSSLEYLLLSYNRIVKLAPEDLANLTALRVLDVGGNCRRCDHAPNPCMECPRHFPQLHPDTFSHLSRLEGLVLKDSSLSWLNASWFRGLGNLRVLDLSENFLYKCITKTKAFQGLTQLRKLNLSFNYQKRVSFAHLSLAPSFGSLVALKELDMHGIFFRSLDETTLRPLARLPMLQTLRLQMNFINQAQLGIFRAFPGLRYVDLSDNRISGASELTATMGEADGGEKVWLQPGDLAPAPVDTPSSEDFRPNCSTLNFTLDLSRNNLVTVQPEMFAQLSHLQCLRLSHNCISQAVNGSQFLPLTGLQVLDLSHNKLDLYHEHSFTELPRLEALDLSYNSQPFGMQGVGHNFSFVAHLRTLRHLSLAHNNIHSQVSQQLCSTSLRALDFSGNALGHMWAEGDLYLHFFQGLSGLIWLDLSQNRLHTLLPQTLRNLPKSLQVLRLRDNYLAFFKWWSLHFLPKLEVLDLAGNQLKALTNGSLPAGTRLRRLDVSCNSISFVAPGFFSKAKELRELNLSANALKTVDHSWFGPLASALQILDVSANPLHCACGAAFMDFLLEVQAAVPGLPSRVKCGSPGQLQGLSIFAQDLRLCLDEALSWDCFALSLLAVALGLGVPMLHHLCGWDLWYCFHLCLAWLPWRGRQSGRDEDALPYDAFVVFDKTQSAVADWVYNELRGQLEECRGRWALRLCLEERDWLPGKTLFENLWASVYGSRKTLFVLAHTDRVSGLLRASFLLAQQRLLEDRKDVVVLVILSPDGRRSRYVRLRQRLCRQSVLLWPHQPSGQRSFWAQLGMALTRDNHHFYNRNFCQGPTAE
The data set is described as follows: Agonist activity at human TLR9 expressed in HEK293 cells assessed as induction of NF-kappaB activity by measuring extracellular secreted alkaline phosphatase up to 250 uM by HEK-blue reporter gene assay. The format is functional, cell-based.

The target in data set [12] is T1, Toll-like receptor 8 (Homo sapiens). Description: Agonist activity at human TLR8 expressed in HEK293 cells assessed as induction of NF-kappaB activity by measuring extracellular secreted alkaline phosphatase up to 250 uM by HEK-blue reporter gene assay. It is filed as functional, cell-based.
Data set [13] concerns the target Toll-like receptor 4 (Homo sapiens) (UniProt O00206). Description: Agonist activity at human TLR4 expressed in HEK293 cells assessed as induction of NF-kappaB activity by measuring extracellular secreted alkaline phosphatase up to 250 uM by HEK-blue reporter gene assay. The format is functional, cell-based.

Molecules are shown by their SMILES. Activity calls are given as the source filed them. The calls are words filed in the database; no cut-off is given here.

Sequence of Toll-like receptor 5 (Homo sapiens) (O60602 whole entry): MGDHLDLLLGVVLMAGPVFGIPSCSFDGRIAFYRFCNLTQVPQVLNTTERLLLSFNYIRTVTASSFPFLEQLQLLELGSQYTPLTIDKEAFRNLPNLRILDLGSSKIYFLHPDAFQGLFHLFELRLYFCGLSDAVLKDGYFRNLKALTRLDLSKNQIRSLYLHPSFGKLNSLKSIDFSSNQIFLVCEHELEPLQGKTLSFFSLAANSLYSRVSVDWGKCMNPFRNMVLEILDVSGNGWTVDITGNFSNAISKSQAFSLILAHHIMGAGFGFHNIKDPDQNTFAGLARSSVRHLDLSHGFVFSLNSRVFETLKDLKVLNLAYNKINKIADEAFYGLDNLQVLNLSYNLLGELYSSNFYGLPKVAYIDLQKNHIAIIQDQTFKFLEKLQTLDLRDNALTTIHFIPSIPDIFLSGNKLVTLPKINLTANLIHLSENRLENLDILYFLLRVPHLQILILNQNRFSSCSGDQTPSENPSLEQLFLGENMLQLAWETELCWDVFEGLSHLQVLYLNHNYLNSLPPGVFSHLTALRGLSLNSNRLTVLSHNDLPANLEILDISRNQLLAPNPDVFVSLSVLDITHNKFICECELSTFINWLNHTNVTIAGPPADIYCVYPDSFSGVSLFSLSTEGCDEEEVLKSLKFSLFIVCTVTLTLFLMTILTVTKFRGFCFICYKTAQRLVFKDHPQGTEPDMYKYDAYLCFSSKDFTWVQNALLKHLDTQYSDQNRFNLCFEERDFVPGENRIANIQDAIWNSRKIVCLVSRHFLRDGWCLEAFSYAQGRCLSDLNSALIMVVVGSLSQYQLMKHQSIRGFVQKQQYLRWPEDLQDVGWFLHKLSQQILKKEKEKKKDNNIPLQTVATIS
Sequence of Toll-like receptor 4 (Homo sapiens) (O00206 whole entry): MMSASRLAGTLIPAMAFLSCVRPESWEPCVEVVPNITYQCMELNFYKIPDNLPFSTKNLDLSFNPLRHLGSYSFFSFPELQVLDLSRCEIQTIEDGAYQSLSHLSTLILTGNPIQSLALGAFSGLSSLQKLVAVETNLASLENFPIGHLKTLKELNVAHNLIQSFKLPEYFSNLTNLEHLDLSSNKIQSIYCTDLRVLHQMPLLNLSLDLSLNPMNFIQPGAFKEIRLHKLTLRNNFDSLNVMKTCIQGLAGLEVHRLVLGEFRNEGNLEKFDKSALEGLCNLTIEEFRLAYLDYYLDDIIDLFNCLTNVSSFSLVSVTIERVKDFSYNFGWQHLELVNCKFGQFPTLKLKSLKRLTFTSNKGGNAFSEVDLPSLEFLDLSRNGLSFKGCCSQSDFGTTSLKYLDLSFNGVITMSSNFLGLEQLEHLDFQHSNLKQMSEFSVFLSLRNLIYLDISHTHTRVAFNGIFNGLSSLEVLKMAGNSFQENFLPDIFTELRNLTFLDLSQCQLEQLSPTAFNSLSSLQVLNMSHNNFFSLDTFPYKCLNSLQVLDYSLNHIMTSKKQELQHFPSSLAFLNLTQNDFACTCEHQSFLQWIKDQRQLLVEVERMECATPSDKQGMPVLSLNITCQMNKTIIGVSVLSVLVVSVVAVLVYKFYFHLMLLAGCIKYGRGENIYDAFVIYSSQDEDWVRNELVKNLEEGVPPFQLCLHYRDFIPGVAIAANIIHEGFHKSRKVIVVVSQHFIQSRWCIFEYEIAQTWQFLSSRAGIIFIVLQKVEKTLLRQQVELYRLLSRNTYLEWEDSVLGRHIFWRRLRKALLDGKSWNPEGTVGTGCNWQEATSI
Sequence of Toll-like receptor 3 (Homo sapiens) (O15455 whole entry): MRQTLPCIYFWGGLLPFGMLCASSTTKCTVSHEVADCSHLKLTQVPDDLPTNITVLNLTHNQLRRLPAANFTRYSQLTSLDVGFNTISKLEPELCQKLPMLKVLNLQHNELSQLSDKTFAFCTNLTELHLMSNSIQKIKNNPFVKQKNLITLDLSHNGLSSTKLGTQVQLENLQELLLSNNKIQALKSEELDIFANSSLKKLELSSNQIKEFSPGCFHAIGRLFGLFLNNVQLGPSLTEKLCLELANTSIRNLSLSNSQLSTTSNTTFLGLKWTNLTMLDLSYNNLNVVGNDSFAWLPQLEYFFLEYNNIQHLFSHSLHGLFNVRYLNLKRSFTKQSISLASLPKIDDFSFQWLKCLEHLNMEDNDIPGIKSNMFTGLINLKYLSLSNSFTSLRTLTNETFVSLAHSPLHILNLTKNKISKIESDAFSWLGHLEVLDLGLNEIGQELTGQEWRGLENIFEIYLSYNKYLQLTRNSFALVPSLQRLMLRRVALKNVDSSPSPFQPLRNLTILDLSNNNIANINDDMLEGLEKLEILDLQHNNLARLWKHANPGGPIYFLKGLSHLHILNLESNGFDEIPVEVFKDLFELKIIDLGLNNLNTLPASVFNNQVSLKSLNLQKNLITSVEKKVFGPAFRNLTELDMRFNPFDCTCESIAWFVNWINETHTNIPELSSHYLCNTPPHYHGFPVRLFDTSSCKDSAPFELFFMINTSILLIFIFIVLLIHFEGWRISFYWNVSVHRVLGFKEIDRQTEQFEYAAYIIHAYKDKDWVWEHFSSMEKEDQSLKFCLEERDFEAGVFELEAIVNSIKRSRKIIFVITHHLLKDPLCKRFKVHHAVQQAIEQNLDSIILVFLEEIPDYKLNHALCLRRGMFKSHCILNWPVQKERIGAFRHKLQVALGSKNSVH

`CCCCNc1oc2c(C)ncc(CO)c2c1Nc1ccccn1`: the results for the Activity result in data set [1] and in data set [3] were “Dose-dependent effect” and “Non-toxic”, respectively. Besides, the EC50 (usually the concentration giving half of the maximal effect) in data set [2] turned out to be 9.38 µM.

`Cc1ncc(CO)c2c(Nc3ccccn3)c(NCc3ccccc3)oc12`: the Activity result was “Dose-dependent effect” in data set [1] and “Non-toxic” in [3]. Further, the EC50 in data set [2] was 4.91 µM.

Regarding `CCCc1nc2c(N)nc3ccccc3c2s1`, the Activity entry in [3] is “Toxic”.

Regarding `CCCCCNc1oc2c(C)ncc(CO)c2c1Nc1ccccn1`, the Activity result in data set [4] is “Toxic”; in data set [1], “Dose-dependent effect”; in data set [5], “Non-toxic”; in data set [6], “Toxic”; in data set [3] it was “Non-toxic”. Also, the EC50 in [2] came to 5.81 µM. Moreover, the result in data set [7] was Active.

For `Cc1ncc(CO)c2c(Nc3ccccn3)c(NC[Si](C)(C)C)oc12`, the Activity result is “Toxic” in data set [4]; “Dose-dependent effect” in data set [1]; “Non-toxic” in [5]; “Toxic” in data set [6]; “Non-toxic” in data set [3]. Also, the half-maximal effective concentration (EC50) in [2] is 4.99 µM.

`c1cc(-c2nc3cnccn3c2NC2CCCCC2)ccn1`: the result in data set [8], in data set [9], in data set [10], in data set [11], in data set [12] and in data set [13] was inactive.
